Source: patent publication US10836706B2, “Bacterial efflux pump inhibitors” (RUTGERS, THE STATE UNIVERSITY OF NEW JERSEY, priority 2016, dated 2020)

How the values were obtained:
[1] = tested on: Pseudomonas aeruginosa ATCC 27853; experiment: Test A: MIC-based assay for potentiation of antibiotics that are known efflux pump substrates; format: cell-based; conditions: antibiotic MIC (e.g., clarithromycin and levofloxacin) in presence vs absence of the EPI compound; EPI at 1.6 to 12.5 g/mL in CAMH broth, 24 hours at 37° C.
Excerpt: (§1) The ability of a compound disclosed herein to inhibit a bacterial efflux pump can be determined using a method like Test A or Test B as described in Example 20 and as shown in Table 1. Test A. Minimum Inhibitory Concentration (MIC)-Based Assay for Potentiation of Antibiotics that are Known Efflux Pump Substrates: MIC-based assays were used to evaluate the impact of potential efflux pump inhibiting (EPI) compounds on the MICs of antibiotics (e.g., clarithromycin and levofloxacin) known to be substrates for Gram-negative bacterial efflux pumps. The assays were conducted in accordance with Clinical and Laboratory Standards Institute (CLSI) guidelines for broth microdilution, with the modification that assays were conducted in the presence and absence of the test EPI compounds. […] Log-phase Gram-negative bacteria were added to 96-well microtiter plates (at 5×10^5 colony forming units (CFU) per mL) containing two-fold serial dilutions of antibiotic in CAMH broth either in the absence or presence of the test EPI compounds. In all assays, each serial dilution of antibiotic was present in duplicate. The final volume in each well was 0.1 mL, and the microtiter plates were incubated aerobically for 24 hours at 37° C. […] The following Gram-negative bacterial strains were included in these assays: Pseudomonas aeruginosa ATCC 27853.

[2] = tested on: Escherichia coli ATCC 25922; experiment: as above; format: cell-based; conditions: antibiotic MIC (e.g., clarithromycin and levofloxacin) in presence vs absence of the EPI compound; EPI at 1.6 to 12.5 μg/mL in CAMH broth, 24 hours at 37° C.
Excerpt: as §1, with “Escherichia coli” for “Pseudomonas aeruginosa”, “25922” for “27853.”

SMILES	Enhanced Activity in P. aeruginosa [1]	Enhanced Activity in E. coli [2]
Cl.Cl.Cl.NCCC[C@H](N)CNCc1cc(C(F)(F)F)cc(C(F)(F)F)c1 [Example 1, (S)—N^1-(3,5-bis(trifluoromethyl)benzyl)pentane-1,2,5-triaminium Chloride]	<2x	≥2x
CC(C)(C)c1cc(CNC[C@@H](N)CCCN)cc(C(C)(C)C)c1.Cl.Cl.Cl [Example 2, (S)—N^1-(3,5-di-tert-butylbenzyl)pentane-1,2,5-triaminium Chloride]	<2x	≥8x
Cl.Cl.Cl.NCCC[C@H](N)CNCCc1cc(C(F)(F)F)cc(C(F)(F)F)c1 [Example 3, (S)—N^1-(3,5-bis(trifluoromethyl)phenethyl)pentane-1,2,5-triaminium chloride]	≥2x	≥4x
CC(N)CC[C@H](N)CNCc1cc(C(F)(F)F)cc(C(F)(F)F)c1.Cl.Cl.Cl (stereo partly drawn) [Example 4, (2S)—N^1-(3,5-bis(trifluoromethyl)benzyl)hexane-1,2,5-triaminium Chloride]	<2x	<2x
CC(C)C(N)CC[C@H](N)CNCc1cc(-c2ccc(F)cc2)cc(-c2ccc(F)cc2)c1.Cl.Cl.Cl (stereo partly drawn) [Example 5, (2S)—N^1-((4,4″-difluoro-[1,1′:3′,1″-terphenyl]-5′-yl)methyl)-6-methylheptane-1,2,5-triaminium chloride]	≥2x	32 x
Cl.Cl.Cl.NCCC[C@H](N)CNCc1cc(-c2ccc(F)cc2)cc(-c2ccc(F)cc2)c1 [Example 6, (S)—N1-((4,4″-difluoro-[1,1′:3′,1″-terphenyl]-5′-yl)methyl)pentane-1,2,5-triaminium chloride]	≥16x	≥512x
Cl.Cl.Cl.NCCN(CCN)Cc1cc(-c2ccc(F)cc2)cc(-c2ccc(F)cc2)c1 [Example 7, N1-(2-ammonioethyl)-N1-((4,4″-difluoro-[1,1′:3′,1″-terphenyl]-5′-yl)methyl)ethane-1,2-diaminium chloride]	≥16x	≥512x
Cl.Cl.Cl.NCCN(CCN)Cc1cc(C(F)(F)F)cc(C(F)(F)F)c1 [Example 8, 2-ammonio-1-((2-ammonioethyl)(3,5-bis(trifluoromethyl)benzyl)-14-azanyl)ethan-1-ylium chloride]	<2x	<2x
CC(C)(CNC[C@@H](N)CCCN)c1cc(-c2ccc(F)cc2)cc(-c2ccc(F)cc2)c1.Cl.Cl.Cl [Example 9, (S)—N^1-(2-(4,4″-difluoro-[1,1′:3′,1″-terphenyl]-5′-yl)-2-methylpropyl)pentane-1,2,5-triaminium chloride]	≥2x	≥128 x
Cl.Cl.Cl.NCCC[C@H](N)CNCCc1cc(-c2ccc(F)cc2)cc(-c2ccc(F)cc2)c1 [Example 10, (S)—N1-(2-(4,4″-difluoro-[1,1′:3′,1″-terphenyl]-5′-yl)ethyl)pentane-1,2,5-triaminium chloride]	≥64x	≥1024x
Cl.Cl.NCCC[C@@H](N)COc1cc(-c2ccc(F)cc2)cc(-c2ccc(F)cc2)c1 [Example 11, (R)-5-((4,4″-difluoro-[1,1′:3′,1″-terphenyl]-5′-yl)oxy)pentane-1,4-diaminium chloride]	≥16x	≥1024 x
Cl.Cl.NC[C@H](N)CCc1cc(-c2ccc(F)cc2)cc(-c2ccc(F)cc2)c1 [Example 12, (R)-4-(4,4″-difluoro-[1,1′:3′,1″-terphenyl]-5′-yl)butane-1,2-diaminium chloride]	<2x	≥32x
Cl.Cl.NCCC[C@H](N)COc1cc(-c2ccc(F)cc2)cc(-c2ccc(F)cc2)c1 [Example 13, (S)-5-((4,4″-difluoro-[1,1′:3′,1″-terphenyl]-5′-yl)oxy)pentane-1,4-diaminium chloride]	<2x	256x
CC(C)C(N)CC[C@H](N)COc1cc(-c2ccc(F)cc2)cc(-c2ccc(F)cc2)c1.Cl.Cl (stereo partly drawn) [Example 14, (2S)-1-((4,4″-difluoro-[1,1′:3′,1″-terphenyl]-5′-yl)oxy)-6-methylheptane-2,5-diaminium]	<2x	<2x
NCCC[C@H](N)CNCc1cc(-c2ccccc2)cc(-c2ccccc2)c1 [Example 15, (S)—N1-([1,1′:3′,1″-terphenyl]-5′-ylmethyl)pentane-1,2,5-triaminium Chloride]	≥16x	≥128x
Cl.Cl.NCCC[C@H](N)COc1cc(-c2ccc(C(F)(F)F)cc2)cc(-c2ccc(C(F)(F)F)cc2)c1 [Example 16, (S)-5-((4,4″-bis(trifluoromethyl)-[1,1′:3′,1″-terphenyl]-5′-yl)oxy)pentane-1,4-diaminium chloride]	≥2x	<2x
COc1ccc(-c2cc(OC[C@@H](N)CCCN)cc(-c3ccc(OC)cc3)c2)cc1.Cl.Cl [Example 17, (S)-5-((4,4″-dimethoxy-[1,1′:3′,1″-terphenyl]-5′-yl)oxy)pentane-1,4-diaminium chloride]	≥2x	≥1024x
Cl.Cl.NCCC[C@@H](N)COc1cc(-c2cccc(F)c2)cc(-c2cccc(F)c2)c1 [Example 18, (R)-5-((3,3″-difluoro-[1,1′:3′,1″-terphenyl]-5′-yl)oxy)pentane-1,4-diaminium chloride]	≥1x	≥512x
Cl.Cl.NCCC[C@@H](N)COc1cc(-c2ccc(F)c(F)c2)cc(-c2ccc(F)c(F)c2)c1 [Example 19, (R)-5-((3,3″,4,4″-tetrafluoro-[1,1′:3′,1″-terphenyl]-5′-yl)oxy)pentane-1,4-diaminium chloride]	≥1x	≥2x
